For test [1], the target named is T1, human PAR2 (Homo sapiens, UniProt P55085).
T1 construct: expressed in transfected cells
T1 sequence (P55085 26-397): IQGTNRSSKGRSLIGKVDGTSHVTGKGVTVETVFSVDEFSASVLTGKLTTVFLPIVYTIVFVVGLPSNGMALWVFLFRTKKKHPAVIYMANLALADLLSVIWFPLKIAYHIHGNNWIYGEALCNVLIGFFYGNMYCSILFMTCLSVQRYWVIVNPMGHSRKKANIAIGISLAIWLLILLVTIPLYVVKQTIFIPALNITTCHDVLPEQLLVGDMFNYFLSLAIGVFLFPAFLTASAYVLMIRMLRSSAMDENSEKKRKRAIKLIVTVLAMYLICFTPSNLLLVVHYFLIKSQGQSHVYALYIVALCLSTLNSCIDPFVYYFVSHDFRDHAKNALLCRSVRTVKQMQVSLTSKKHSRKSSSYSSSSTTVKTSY
Kind of test: TNFα-stimulated JNK activity (in vitro c-Jun phosphorylation), PAR2 agonist pre-incubation, PAR2 NCTC2544 cells (clone G). It counts as cell-based. The conditions noted are these: pre-incubation 30 min, TNFα 10 ng/ml 30 min. The method, then:
(§1) Human skin epithelial cells NCTC2544 were maintained in M199 medium with Earl's salt supplement, 10% (v/v) foetal calf serum, L-glutamine (27 µg/ml), penicillin (250 U/ml), and streptomycin (25 mg/ml). NCTC2544 cells stably expressing human PAR2 (clone G) were maintained in complete M199 medium containing 400 μg/ml of Geneticin for selection pressure and passaged using Versene (2% EDTA/PBS). EAhy-926 cells were produced by hybridizing human umbilical vein endothelial cells (HUVECs) with the epithelial cell line A549 [27] and maintained in Dulbecco's Modified Eagle's Medium (DMEM) supplemented with 10% foetal calf serum (FCS), hypoxanthine/aminopterin/thymidine (HAT supplement), penicillin (250 U/ml) and streptomycin (25 mg/ml), and cells were passaged using Versene.
To measure JNK activity, cells were stimulated as appropriate and the reaction terminated by rapid aspiration and the addition of ice-cold PBS. […] Phosphorylation of GST-c-Jun was then determined by autoradiography. […]
(§2) Fig. 1 PAR2 activation mediates inhibition of TNFα-stimulated JNK activity and phosphorylation in PAR2 NCTC2544 cells. […] Samples were assessed for JNK activity (Panel A) or phospho-JNK levels (Panel C) as outlined in the Methods section. Gels from JNK assays were quantified (Panel B). Each value represents the mean ± s.e.m from at least 4 experiments and data was quantified by densitometry. ⁎P < 0.05, ⁎⁎P < 0.01 compared to TNFα alone.
Fig. 4 Concentration response effects of PAR2 peptides for activation of JNK and inhibition of TNFα-stimulated JNK. PAR2 expressing NCTC2544 cells (clone G) were incubated with increasing concentrations of SLIGKV-OH or 2f-LIGKV-OH for 30 min and assayed for JNK activity (Panel B) or stimulated for a further 30 min with TNFα (+) before JNK activity was assessed (Panel A). Samples were assessed for JNK activity as outlined in the Methods section. Gels from JNK assays were quantified (Panel C). Each value represents the mean ± s.e.m from at least 4 experiments and data was quantified by densitometry.

Test [2] has as its target T1, human PAR2. In words: TNFα-stimulated JNK phosphorylation (Western blot), PAR2 NCTC2544 cells (clone G). Format: cell-based. Conditions: pre-incubation 30 min, TNFα 10 ng/ml 30 min. How it is done: as §1
Proteins were separated by 10% SDS–PAGE and transferred onto nitrocellulose. […]
as §2

Test [3] addresses T1, human PAR2. The conditions noted are these: ref [17]; cited from earlier work. The text has this: Thus, we can discern two agonist-mediated directed events which relate to the activation of JNK. This type of m ...
The subject of test [4] is PKC. Kind of test: TNFα-stimulated JNK activity, PKC activator / PKC inhibitor, PAR2 NCTC2544 cells. It counts as cell-based, human. The method, then: as §1
To measure JNK activity, cells were stimulated as appropriate and the reaction terminated by rapid aspiration and the addition of ice-cold PBS. The cells were solubilised in 20 mM HEPES buffer, pH 7.7, containing 50 mM NaCl, 0.1 mM EDTA, 0.1 mM Na3VO4, 0.1 mM PMSF, 10 mg/ml aprotinin, 10 mg/ml leupeptin, and 1% (w/v) Triton X-100. Lysates were clarified by centrifugation for 5 min at 13,000 rpm and equal amounts of protein were incubated with 20 μg of GST-c-Jun-(5–89) immobilized on glutathione-Sepharose at 4 °C for 3 h. Beads were then washed three times in solubilisation buffer and twice in 25 mM HEPES buffer, pH 7.6, containing 20 mM β-glycerophosphate, 0.1 mM NaV3O4, and 2 mM dithiothreitol. Precipitates were then incubated with the same buffer containing 25 μM/0.5 μCi of ATP/[γ-^32P] ATP in a final volume of 30 µl at 30 °C for 30 min. The reactions were terminated by the addition of 4× SDS-sample buffer and aliquots of each sample subjected to electrophoresis on 11% SDS-polyacrylamide gel electrophoresis. Phosphorylation of GST-c-Jun was then determined by autoradiography.
Where experimental data is shown as a blot, this represents one of at least 3 experiments and data represents the mean ± s.e.m. Statistical analysis was by one-way ANOVA with Dunnett's post test (*P < 0.05, **P < 0.01).
Fig. 5 Pharmacological blockade of protein kinase C reverses PAR2 mediated inhibition of TNFα-stimulated JNK activation. PAR2 expressing NCTC2544 cells (clone G) were pre-incubated with increasing concentrations of GF109203X (GFX) for 30 min then incubated for a further 30 min with 100 nM PMA (Panel A) or 30 nM trypsin (Panel B) prior to stimulation for a further 30 min with TNFα(+) (10 ng/ml). Samples were assessed for JNK activity (Panels A and B) or phospho-JNK levels (Panel D) as outlined in the Methods section. Gels from JNK activity assays were quantified by densitometry (Panel C). Each value represents the mean ± s.e.m from at least 4 experiments. ⁎⁎P < 0.01 compared to TNFα and trypsin stimulated.

For test [5], the system named is PKC isoforms. Conditions: cited from earlier work. The text has this: We then examined the potential signalling pathways which could be mediating the inhibitory effects of PAR2. PAR2 is coupled to a number of signalling pathways via G-protein dependent and independent mechanisms. […] Therefore, we tested the effect of the PKC inhibitor GF109203X on PAR2 mediated inhibition of JNK activity and phosphorylation. ... || We then sought to investigate the possible mechanisms by which PAR2 mediated inhibition of JNK might occur. […] This is typical of a number of keratinocyte cell type ...

The subject of test [6] is PKC. In words: TNFα-stimulated JNK phosphorylation, PKC activator / PKC inhibitor, PAR2 NCTC2544 cells. The conditions noted are these: GF109203X 10 μM; trypsin or SLIGKV-OH; TNFα 10 ng/ml 30 min. It counts as cell-based, human. How it is done: as §1
Proteins were separated by 10% SDS–PAGE and transferred onto nitrocellulose. The membranes were blocked for non-specific binding for 2 h in 2% BSA (w/v) diluted in NATT buffer (50 mM Tris–HCl, 150 mM NaCl, 0.2% (v/v) Tween-20). […]
Fig. 5 Pharmacological blockade of protein kinase C reverses PAR2 mediated inhibition of TNFα-stimulated JNK activation. […] Samples were assessed for JNK activity (Panels A and B) or phospho-JNK levels (Panel D) as outlined in the Methods section. Gels from JNK activity assays were quantified by densitometry (Panel C). […]

Test [7] deals with TNFR1/TRADD. In words: TNFR1/TRADD complex formation (TNFR1 immuno-precipitation, TRADD immuno-blot), PAR2 expressing cells. Format: cell-based, human. The conditions noted are these: 100 nM YM254890 or 3 μM GF109203X 30 min, peptide 100 μM 30 min, TNFα 10 ng/ml 30 min. The method, then: as §1
Proteins were separated by 10% SDS–PAGE and transferred onto nitrocellulose. The membranes were blocked for non-specific binding for 2 h in 2% BSA (w/v) diluted in NATT buffer (50 mM Tris–HCl, 150 mM NaCl, 0.2% (v/v) Tween-20). The blots were then incubated overnight with 50 ng/ml primary antibody diluted in 0.2% BSA (w/v) in NATT buffer. The blots were washed with NATT buffer for 90 min and incubated with HRP-conjugated secondary antibody (20 ng/ml in 0.2% BSA (w/v) diluted in NATT buffer) for 2 h. After a further 90 min wash, the blots were subjected to ECL reagent and exposed to Kodak X-ray film.
For immuno-precipitation of TNFR1, equal amounts of pre-cleared cell lysates were incubated in Tris–HCl buffer, pH 7.4, containing 50 mM NaCl, 1 mM EDTA, 1 mM EGTA, 1% (w/v) Triton X-100, and 0.5% (w/v) Nonidet P-40, with 2 μg TNFR1 antibody, pre-coupled to protein G, for 3 h. Lysates were recovered by sequential washes in solubilisation buffer and in the same buffer lacking detergents. Precipitates were assessed for TRADD or RIP content using Western blotting.
Fig. 7 PAR2 mediated TNFR1 adapter protein disruption in PAR2 expressing cells. In Panel A, cells were pre-treated with peptide (100 μM) or vehicle prior to stimulation with TNFα (10 ng/ml) for 30 min. Lysates were immuno-precipitated for TNFR1 and immuno-blotted for TRADD and/or RIP, as outlined in the Methods section. In Panel B cells were pre-treated with 100 nM YM254890 or 3 μM GF109203X for 30 min prior to pre-treatment with peptide (100 μM), for 30 min, then incubated for a further 30 min with TNFα (10 ng/ml). TNFR1 immuno-precipitates were immuno-blotted for TRADD. Each gel is representative of at least three experiments.

“Also recorded” adds a separate entry of the source.

As for trypsin, the “effect on TNFα-stimulated JNK activity” value in test [1] was “strongly inhibited both the phosphorylation and activity of JNK; also recorded: concentration-dependent inhibition of subsequent TNFα-stimulated JNK activity; also recorded: strongly mediate an inhibition of TNFα mediated JNK signalling”. In addition, the “effect on TNFα-stimulated JNK phosphorylation” value in test [2] is “strongly inhibited both the phosphorylation and activity of JNK”. Besides, the “JNK activity on PAR2 activation” value in test [3] is “increase in JNK activity”.

With `Cn1c2ccccc2c2c3c(c4c5ccccc5n(CCC#N)c4c21)CNC3=O` [Go6976], in test [4] (not shown), the “effect of classical PKC inhibitor on PAR2 mediated JNK inhibition” value is recorded as “without effect”. Further, the “PKC isoform preference” value in test [5] (no reference given) is “preferentially inhibits the classical group of PKC isoforms”.

For `CN(C)CCCn1cc(C2=C(c3c[nH]c4ccccc34)C(=O)NC2=O)c2ccccc21` [GF109203X], the “reversal of PAR2 mediated inhibition of JNK activity by PKC inhibitor” value in test [4] (GF109203X 10 μM (maximal concentration), trypsin 30 nM or SLIGKV-OH, TNFα 10 ng/ml 30 min) was “reversed the inhibitory effect of trypsin and SLIGKV-OH on TNFα-stimulated JNK activation”. Moreover, the “reversal of PAR2 mediated JNK inhibition by PKC inhibitor, general statement” value in test [4] (abstract / discussion) is “the effects of both agents were reversed; also recorded: good reversal of PAR2 mediated inhibition”. Further, in test [4] (micromolar concentrations GF109203X 30 min, 100 nM PMA 30 min, TNFα 10 ng/ml 30 min), the “reversal of PMA effect on TNFα-stimulated JNK activity” value was “reversed by micromolar concentrations”. Further, the “reversal of PAR2 mediated inhibition of JNK phosphorylation by PKC inhibitor” value in test [6] was “reversed the inhibitory effect”. In addition, in test [7], the “reversal of PAR2 mediated disruption of TNFR1/TRADD complex” value is “effectively reversed PAR2 mediated disruption”. In test [5] (ref [40–42]), the “PKC isoform inhibition” value was “block both Ca^2+-dependent and some novel PKC isoforms”.

Source of the values: PMC2806525, “Proteinase-activated receptor-2 mediated inhibition of TNFα-stimulated JNK activation — A novel paradigm for Gq/11 linked GPCRs” (Cellular Signalling, 2010).
